Reference: patent publication EP2992879B1, “PHARMACEUTICAL COMPOSITION FOR […] OF MOTOR NEURONS AND USE THEREOF” (China Medical University, priority 2012, dated 2014)

Key:
LC3-II [1] = experiment: Western blotting of autophagy biomarker in spinal cord; format: in vivo, mice; settings: cervical, thoracic and lumbar spinal cord, compared with untreated control; oral 500 mg/kg-body weight once daily; β-actin internal control
Method: SOD1-G93A transgenic mice (60-day-old) were treated with butylidenephthalide by oral administration, with a dosage of 500 mg/ kg-body weight once daily. It has been indicated by research that SOD1-G93A transgenic mice lost its spinal motor neurons because of the significant increase of autophagy during the last phase of amyotrophic lateral sclerosis (which can be seen in In vivo optical imaging of motor neuron autophagy in a mouse model of amyotrophic lateral sclerosis. Autophagy 7:9, 1-8; September 2011, which is entirely incorporated hereinto by reference). Therefore, in this example, the SOD1-G93A transgenic mice in experimental group were sacrificed in extremis to collect their spinal cord, and the proteins were extracted from the spinal cord to perform Western blotting and to analyze the protein biomarker of autophagy, LC3-II, which was used to determine whether autophagy occurred in the lumbar spinal motor neurons of the mice, wherein β-actin was used as an internal control.

[2] = test system: SOD1-G93A transgenic mice; experiment: In vivo analysis: survival of SOD1-G93A transgenic mice; settings: 60-day-old SOD1-G93A transgenic mice, oral administration, 500 mg/kg-body weight once daily; for Survival days: n = 8, untreated control 127 ± 6.11, 500 mg/kg
From the text: It has been known that about 20% of amyotrophic lateral sclerosis patients were associated with mutations in the gene that encodes Cu/Zn superoxide dismutase enzyme (SOD1), and G93A was the major mutation site. […] A SOD1-G93A transgenic mouse will show the symptoms of amyotrophic lateral sclerosis within about 90±5 days postnatal and will die within about 125±5 days postnatal.
This example used the above SOD1-G93A transgenic mice as the object of study to perform in vivo analysis. SOD1-G93A transgenic mice (60-day-old) were treated with butylidenephthalide (purchased from ECHO Chemical) by oral administration, with a dosage of 500 mg/ kg-body weight once daily, wherein the unit "mg/kg-body weight" means the dosage required per kg-body weight. […]

LC3-II [3] = experiment: Cellular experiment: Western blotting of LC3-II in NSCs after H2O2 stimulation of autophagy; format: cell-based, mouse; settings: 10 µg/mL for 12 hours, then H2O2 (2500 µM/mL) for 12 hours
Method: Cellular experiment was performed by using NSCs (neural stem cells) which can differentiate into mouse motor neurons to imitate mouse motor neurons.
NSCs were incubated in a culture dish (10 cm in diameter). The cells were washed with PBS when grown to a density of 60% confluence, and treated with different concentrations of butylidenephthalide for 12 hours. The cells were then treated with H2O2 (2500 µM/mL) for 12 hours to stimulate the autophagy of cells. Then, the cells were collected and the proteins were extracted, and the protein expression level of LC3-II in NSC was analyzed by SDS-PAGE and Western blotting.

[4] = test system: SOD1-G93A transgenic mice; experiment: Histochemical staining (hematoxylin and eosin): count of spinal motor neurons; format: in vivo; settings: spinal cord, mice sacrificed in extremis
Method: SOD1-G93A transgenic mice (60-day-old) were treated with butylidenephthalide by oral administration, with a dosage of 500 mg/ kg-body weight once daily. The SOD1-G93A transgenic mice in the experimental group were sacrificed in extremis, and the spinal cord was collected to perform hematoxylin and eosin stain. The number of motor neurons in the spinal cord was observed and counted by using a microscope, and the data was compared with that of the untreated control group.

[5] = test system: SOD1-G93A transgenic mice; experiment: In vivo analysis: BBB Locomotor Rating Scale of the hind limbs; settings: oral 500 mg/kg-body weight once daily from day 60
Method: SOD1-G93A transgenic mice (60-day-old) were treated with butylidenephthalide by oral administration, with a dosage of 500 mg/ kg-body weight once daily. After the mice were treated for 30 days, the hind limbs of the mice were examined by BBB scale (Basso, Beattie, and Bresnahan (BBB) Locomotor Rating Scale). The BBB scale of the hind limbs of normal mice was 21 points, while the BBB scale of disease-progressed SOD1-G93A transgenic mice decreased from 21 to 0 points, wherein the lower scale represents a more severe action disorder in the mice. BBB scale is used to record the drug efficiency.

**Q.** `CCCC=C1OC(=O)c2ccccc21` [butylidenephthalide] was tested. Which “protein expression level of LC3-II and pLC3-II” value (LC3-II [1]) did it give?
**A.** significantly decreased

**Q.** What about the “life lengthened as compared to the untreated control group” value [2] of the same compound?
**A.** about 22 ± 2 days

**Q.** And the Survival days [2]?
**A.** about 149 ± 4.39 days

**Q.** And the Survival days ([2]; listed as n-BP)?
**A.** 149 ± 4.39 days

**Q.** And the “protein expression level of LC3-II in NSC” value (LC3-II [3])?
**A.** decrease the protein expression level of LC3-II

**Q.** And the “The number of motor neurons” value ([4]; oral 500 mg/kg-body weight once daily from day 60, control 3 ± 3.1)?
**A.** 24

**Q.** What about the “The number of motor neurons” value ([4]; oral 500 mg/kg-body weight once daily from day 60, control 3 ± 3.1, listed as n-BP) of the same compound?
**A.** 24 ± 4.2

**Q.** And the “BBB scale of the hind limbs” value ([5]; after 135 days (decreased rapidly))?
**A.** 16 to 0 points

**Q.** What about the “BBB scale of the hind limbs” value ([5]; from 125 to 135 days (decreased slowly), normal mice 21 points, control fell from 19 to 0 after 110 days) of the same compound?
**A.** 21 to 16 points
